Experiments:
human CDK4/cyclin D3 = target: T1, human CDK4/cyclin D3 (Homo sapiens, UniProt P11802); experiment: Inhibition of CDK4/cyclin D retinoblastoma kinase activity (Ki; % inhibition); assay type: biochemical; conditions: for Ki: apparent Ki, CDK4/cyclin D3, Rb substrate
T1 construct: made in house; host or cells: insect cells co-infected with baculovirus vectors
Procedure, shortened: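 Radiometric filter-binding read-out: Rb residues 386-928 phosphorylated by 5 nM CDK4/cyclin D3(1-264) from baculovirus-infected insect cells, 25 μM ATP, HEPES pH 7.4, 30 °C. Run 20 min, or 60 min for tight-binding inhibitors. Screening at 30 nM theoretical compound; apparent Ki by competitive-inhibition fitting.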

HCT-116 cell line = experiment: Inhibition of cell growth, MTT tetrazolium salt assay; assay type: cell-based; conditions: for IC50: Homo sapiens, HCT-116, 120 h, MTT, three to five days
Procedure, shortened: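 HCT-116 cells in McCoy's 5A were dosed 4 h after plating with compounds in 0.5% DMSO and grown 3–5 days at 37 °C. Then 0.2 mg/mL MTT was added for 4 h and formazan absorbance read at 540 nm. IC50/IC90 came from semi-log plots against DMSO-only controls.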

CDK2/cyclin A = target: T2, CDK2/cyclin A (Homo sapiens, UniProt P24941); experiment: Inhibition of CDK2/cyclin A retinoblastoma kinase activity (Ki; % inhibition); assay type: biochemical; conditions: for Ki: apparent Ki, CDK2/cyclin A, Rb substrate
T2 construct: made in house; host or cells: CDK2: insect cells (baculovirus); cyclin A: E. coli
Procedure, shortened: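 Apparent Ki values came from fitting concentration-dependent activity data to competitive (or competitive tight-binding) models, and % inhibition from single 30 nM screens of library compounds. Activity was measured as ³²P/³³P incorporation from 25 μM ATP into an Rb substrate by 10 or 19 nM CDK2/delta cyclin A at 30 °C over 60–75 min, pH 7.4.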

[1] = HCT-116 cells, 0.25 μM compound

T1 sequence (P11802 whole entry): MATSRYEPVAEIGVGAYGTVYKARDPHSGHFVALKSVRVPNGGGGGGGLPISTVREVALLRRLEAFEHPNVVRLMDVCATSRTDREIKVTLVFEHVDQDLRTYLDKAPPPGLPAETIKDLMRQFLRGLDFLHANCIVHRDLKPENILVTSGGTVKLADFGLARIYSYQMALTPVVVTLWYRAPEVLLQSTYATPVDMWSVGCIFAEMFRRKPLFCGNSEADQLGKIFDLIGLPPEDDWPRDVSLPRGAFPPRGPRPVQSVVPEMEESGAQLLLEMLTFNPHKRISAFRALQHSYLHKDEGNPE
T1 sequence (P30281 1-264 partner limits assumed): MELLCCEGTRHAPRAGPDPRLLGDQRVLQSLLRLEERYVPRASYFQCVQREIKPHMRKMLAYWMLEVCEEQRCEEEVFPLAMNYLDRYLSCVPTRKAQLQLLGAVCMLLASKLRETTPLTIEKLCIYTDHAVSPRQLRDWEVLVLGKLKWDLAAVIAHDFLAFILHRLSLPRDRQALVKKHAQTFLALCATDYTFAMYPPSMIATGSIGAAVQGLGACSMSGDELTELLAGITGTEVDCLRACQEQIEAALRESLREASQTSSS

Row | CDK4 % Inhibition at 0.03 μM (human CDK4/cyclin D3; 0.03 μM compound) [%] | CDK2 % Inhibition at 0.03 μM (CDK2/cyclin A; 0.03 μM compound) [%] | CDK4 % Inhibition at 0.03 μM (human CDK4/cyclin D3; at 0.03 μM) [%] | CDK2 % Inhibition at 0.03 μM (CDK2/cyclin A; at 0.03 μM) [%] | SMILES | HCT-116 % Inhibition at 0.1 μM (HCT-116 cell line; HCT-116 cells, 0.1 μM compound) [%] | HCT-116 % Inhibition at 0.25 μM (HCT-116 cell line; [1]) [%] | HCT-116 % Inhibition at 0.25 μM (HCT-116 cell line; HCT-116, at 0.25 μM) [%] | further results
1 | 5 | −23 | – | – | Cc1cccc(N2CCN(C(=O)c3ccc(Nc4nc(N)c(C(=O)c5c(F)cccc5F)s4)cc3)CC2C)c1 (stereo not shown) [Example G308] | 5 | 60 | – | –
2 | 36 | 29 | – | – | Nc1nc(Nc2ccc(C(=O)NCc3cccc(Cl)c3Cl)cc2)sc1C(=O)c1c(F)cccc1F [Example G216] | 16 | 54 | – | –
3 | – | – | 41 | 15 | Nc1nc(Nc2ccc(C(=O)NCCCN3CCCCC3)cc2)sc1C(=O)c1c(F)cccc1F [Example G128] | – | – | 78 | HCT-116 % Inhibition at 0.1 μM (HCT-116 cell line; HCT-116, at 0.1 μM): 23%
4 | – | – | – | – | CC(CN(C)C)NC(=O)c1ccc(Nc2nc(N)c(C(=O)c3c(F)cccc3F)s2)cc1O (stereo not shown) [Example D2, 4-[4-Amino-5-(2,6-difluoro-benzoyl)-thiazol-2-ylamino]-N-(2-dimethylamino-1RS-methyl-ethyl)-2-hydroxy-benzamide] | – | – | – | Ki (human CDK4/cyclin D3): 25 nM; IC50 (HCT-116 cell line): 580 nM; Ki (CDK2/cyclin A): 51 nM
5 | – | – | 3 | 9 | Nc1nc(Nc2ccc(C(=O)Nc3ccc(Cl)c(Cl)c3)cc2)sc1C(=O)c1c(F)cccc1F [Example G84] | – | – | 63 | –
6 | – | – | 36 | 23 | CN(C)CCNC(=O)c1ccc(Nc2nc(N)c(C(=O)c3c(F)cccc3F)s2)cc1 [Example G149] | – | – | 82 | HCT-116 % Inhibition at 0.1 μM (HCT-116 cell line; HCT-116, at 0.1 μM): 10%
7 | 22 | 8 | – | – | COc1cc(NC(=O)c2ccc(Nc3nc(N)c(C(=O)c4c(F)cccc4F)s3)cc2)cc(OC)c1OC [Example G295] | 10 | 78 | – | –
8 | – | – | 22 | 7 | Nc1nc(Nc2ccc(C(=O)N3CCN(Cc4ccc5c(c4)OCO5)CC3)cc2)sc1C(=O)c1c(F)cccc1F [Example G62] | – | – | 50 | –
9 | 12 | −9 | – | – | Nc1nc(Nc2ccc(C(=O)Nc3ccc(Cl)nc3)cc2)sc1C(=O)c1c(F)cccc1F [Example G281] | 6 | 63 | – | –
10 | – | – | 19 | 17 | CN(C)CCN(C)C(=O)c1ccc(Nc2nc(N)c(C(=O)c3c(F)cccc3F)s2)cc1 [Example G57] | – | – | 51 | –
11 | 22 | 18 | – | – | Nc1nc(Nc2ccc(C(=O)NC3CCOC3=O)cc2)sc1C(=O)c1c(F)cccc1F (stereo not shown) [Example G199] | 12 | 52 | – | –
12 | 39 | 39 | – | – | Cc1ccc(CNC(=O)c2ccc(Nc3nc(N)c(C(=O)c4c(F)cccc4F)s3)cc2)o1 [Example G250] | 31 | 72 | – | –
13 | – | – | 49 | 38 | COc1ccc(CNC(=O)c2ccc(Nc3nc(N)c(C(=O)c4c(F)cccc4F)s3)cc2)cc1 [Example G169] | – | – | 71 | HCT-116 % Inhibition at 0.1 μM (HCT-116 cell line; HCT-116, at 0.1 μM): 32%
14 | – | – | 4 | −10 | CC1CN(C(=O)c2ccc(Nc3nc(N)c(C(=O)c4c(F)cccc4F)s3)cc2)CC(C)O1 (stereo not shown) [Example G18] | – | – | 41 | –
15 | −3 | 3 | – | – | Nc1nc(Nc2ccc(C(=O)Nc3ccc(C(F)(F)F)cc3)cc2)sc1C(=O)c1c(F)cccc1F [Example G368] | 25 | 50 | – | –
16 | 25 | 13 | – | – | Nc1nc(Nc2ccc(C(=O)NCc3ccc(F)cc3F)cc2)sc1C(=O)c1c(F)cccc1F [Example G301] | 18 | 79 | – | –
17 | – | – | – | – | CN(C)C1(CNC(=O)c2ccc(Nc3nc(N)c(C(=O)c4c(F)cccc4F)s3)cc2)CCC1 [Example A78, 4-{[4-Amino-5-(2,6-difluorobenzoyl)-1,3-thiazol-2-yl]amino}-N-{[1-(dimethylamino)cyclobutyl]methyl}benzamide] | – | – | – | Ki (human CDK4/cyclin D3): 8.2 nM; IC50 (HCT-116 cell line): 130 nM; Ki (CDK2/cyclin A): 110 nM
18 | 29 | 22 | – | – | COc1ccc(CCNC(=O)c2ccc(Nc3nc(N)c(C(=O)c4c(F)cccc4F)s3)cc2)cc1OC [Example G241] | 28 | 57 | – | –

Row | CDK4 % Inhibition at 0.03 μM (human CDK4/cyclin D3; 0.03 μM compound) [%] | CDK2 % Inhibition at 0.03 μM (CDK2/cyclin A; 0.03 μM compound) [%] | CDK4 % Inhibition at 0.03 μM (human CDK4/cyclin D3; at 0.03 μM) [%] | CDK2 % Inhibition at 0.03 μM (CDK2/cyclin A; at 0.03 μM) [%] | SMILES | HCT-116 % Inhibition at 0.1 μM (HCT-116 cell line; HCT-116 cells, 0.1 μM compound) [%] | HCT-116 % Inhibition at 0.25 μM (HCT-116 cell line; [1]) [%] | HCT-116 % Inhibition at 0.25 μM (HCT-116 cell line; HCT-116, at 0.25 μM) [%] | further results
19 | – | – | 20 | 13 | Nc1nc(Nc2ccc(C(=O)NC3CCSC3=O)cc2)sc1C(=O)c1c(F)cccc1F (stereo not shown) [Example G121] | – | – | 55 | HCT-116 % Inhibition at 0.1 μM (HCT-116 cell line; HCT-116, at 0.1 μM): 0%
20 | – | – | 4 | −7 | COC(CN(C)C(=O)c1ccc(Nc2nc(N)c(C(=O)c3c(F)cccc3F)s2)cc1)OC [Example G19] | – | – | 43 | –
21 | – | – | 12 | 25 | Nc1nc(Nc2ccc(C(=O)Nc3cccc4ncccc34)cc2)sc1C(=O)c1c(F)cccc1F [Example G67] | – | – | 82 | –
22 | 9 | −6 | – | – | Cc1ccc(O)c(NC(=O)c2ccc(Nc3nc(N)c(C(=O)c4c(F)cccc4F)s3)cc2)c1 [Example G396] | 14 | 67 | – | –
23 | – | – | 5 | −2 | COCC(C)NC(=O)c1ccc(Nc2nc(N)c(C(=O)c3c(F)cccc3F)s2)cc1 (stereo not shown) [Example G103] | – | – | 59 | HCT-116 % Inhibition at 0.1 μM (HCT-116 cell line; HCT-116, at 0.1 μM): 21%
24 | – | – | 12 | −5 | Cc1cc(NC(=O)c2ccc(Nc3nc(N)c(C(=O)c4c(F)cccc4F)s3)cc2)ccc1C(C)C [Example G107] | – | – | 59 | HCT-116 % Inhibition at 0.1 μM (HCT-116 cell line; HCT-116, at 0.1 μM): 5%
25 | – | – | 25 | 15 | CCN1CC(NC(=O)c2ccc(Nc3nc(N)c(C(=O)c4c(F)cccc4F)s3)cc2)CN1CC [Example G150] | – | – | 57 | HCT-116 % Inhibition at 0.1 μM (HCT-116 cell line; HCT-116, at 0.1 μM): 0%
26 | 24 | 2 | – | – | CC(C)(CO)CNC(=O)c1ccc(Nc2nc(N)c(C(=O)c3c(F)cccc3F)s2)cc1 [Example G263] | 26 | 54 | – | –
27 | – | – | 11 | 4 | CCOC(=O)c1ccccc1NC(=O)c1ccc(Nc2nc(N)c(C(=O)c3c(F)cccc3F)s2)cc1 [Example G46] | – | – | 58 | –
28 | 35 | 32 | – | – | COc1cccc(CNC(=O)c2ccc(Nc3nc(N)c(C(=O)c4c(F)cccc4F)s3)cc2)c1 [Example G246] | 20 | 62 | – | –
29 | 6 | −2 | – | – | COc1ccc(CNC(=O)c2ccc(Nc3nc(N)c(C(=O)c4c(F)cccc4F)s3)cc2)cc1OC [Example G345] | 22 | 36 | – | –
30 | 49 | 43 | – | – | Nc1nc(Nc2ccc(C(=O)NCCNc3ccc([N+](=O)[O-])cn3)cc2)sc1C(=O)c1c(F)cccc1F [Example G242] | 34 | 69 | – | –
31 | 25 | 23 | – | – | Nc1nc(Nc2ccc(C(=O)NCc3cc(Cl)ccc3Cl)cc2)sc1C(=O)c1c(F)cccc1F [Example G286] | 10 | 60 | – | –
32 | – | – | 27 | 2 | Nc1nc(Nc2ccc(C(=O)NCCCn3ccnc3)cc2)sc1C(=O)c1c(F)cccc1F [Example G143] | – | – | 65 | HCT-116 % Inhibition at 0.1 μM (HCT-116 cell line; HCT-116, at 0.1 μM): 0%
33 | 30 | −9 | – | – | CCN(CC)CCN(C)C(=O)c1ccc(Nc2nc(N)c(C(=O)c3c(F)cccc3F)s2)cc1 [Example G298] | 0 | 46 | – | –
34 | 42 | 19 | – | – | NC(=O)C(CO)NC(=O)c1ccc(Nc2nc(N)c(C(=O)c3c(F)cccc3F)s2)cc1 (stereo not shown) [Example G198] | 9 | 44 | – | –
35 | – | – | −1 | −4 | COC(=O)c1ccccc1NC(=O)c1ccc(Nc2nc(N)c(C(=O)c3c(F)cccc3F)s2)cc1 [Example G39] | – | – | 65 | –

Reference: patent US6720346B2, “Thiazole benzamide derivatives and pharmaceutical compositions for inhibiting cell proliferation” (Agouron Pharmaceuticals, Inc., priority 2001, dated 2004)
